Key:
[1] = system: lesional skin biopsies from psoriasis patients; assay: Inflammatory marker mRNA in full-thickness lesional skin biopsies of psoriasis patients (ex vivo, RT-PCR); assay type: cell-based, human; settings: patient with psoriatic plaque; 8 days at 37° C.; ABA 2 μL/ml; dexamethasone as control
Procedure: (§1) In skin biopsies of patients with plaque psoriasis and from patients with atopic dermatitis, it was determined the expression of several inflammatory markers (Interleukin 23A (IL-23A), C-X-C motif chemokine 10 (CXCL10), Interleukin 8 (IL-8), Interleukin 20 (IL-20), Intercellular Adhesion Molecule 1 (ICAM-1), LNC2, DEF-4, Keratin 16 (K-16), Interferon gamma (IFNg) and Interleukin 17A (IL-17A) using commercially available PCR tools for their determinations (RT-PCR by RNeasy Fibrous Tissue Mini kit and cDNA Archive kit, Sigma, ABlprism 7900HT and TaqMan probes). As a control, dexamethasone was used.
(§2) Full-thickness lesional skin biopsies from untreated atopic dermatitis and psoriasis patients were incubated in KBM medium supplemented with Ca2Cl for 8 days at 37° C., conditions that preserve human skin lesional in vitro. The different culture conditions were media, ABA (2 μL/ml (+)-(S)-cis,trans-abscisic acid). Medium was changed every 2-3 days. After incubation biopsies were cryopreserved in OCT at −80 until total mRNA was extracted with miRNeasy kit (Qiagen) according to manufacturer's protocol. RNA quality and quantity were checked using Nanodrop. RNA was conserved in RNase free water at −80° C. until analysis. RNA was converted to cDNA using the HighCapacity cDNA Reverse Transcription Kits (Applied Biosystems). Quantitative PCR was performed using TaqMan PreAmp Master Mix Kit (Applied Bioscience) and the TaqMan Gene Expression Master Mix (Applied Bioscience) following the manufacturers' protocols. Gene expression was normalized to the house-keeping gene Glyceraldehyde 3-phosphate dehydrogenase (GADPH) and normalized for each condition as 1,8e (Ct GADPH-Ct target gene) ×10000. […]
This cell culture lysate was a callus cell lysate and it was used at a final concentration of 20 μg/ml of media (KBM medium supplemented with Ca2Cl as in the assay with ABA alone). As positive or comparative control, dexamethasone (1 μM in the culture) was used.
(§3) Patients from which biopsies were obtained included 5 psoriatic cases and 3 atopic dermatitis cases.

[2] = system: lesional skin biopsies from atopic dermatitis patients; assay: Inflammatory marker mRNA in full-thickness lesional skin biopsies of atopic dermatitis patients (ex vivo, RT-PCR); assay type: cell-based, human; settings: patient with atopic dermatitis plaque; 8 days at 37° C.; ABA 2 μL/ml; dexamethasone as control
Procedure: as §1, §2, §3

[3] = system: Tumoral necrosis factor alpha (TNF-α) in THP-1; assay: TNF-α levels (ELISA) in THP-1 monocytes inflamed with IL-17 and LPS; assay type: cell-based, human; settings: IL-17 3 ng/ml + LPS 10 μg/ml 6 hours, then 24 hours; lysate 200, 20, 1 and 0.1 μg/ml (all doses); dexamethasone 10 μM
Procedure: (§4) In human monocytes line THP-1 (derived from patients with acute monocytic leukemia) inflammation was induces with IL-17 (3 ng/ml of culture) and lipopolysaccharide (LPS; 10 μg/ml) for 6 hours. After that different doses of the C. longa callus lysate were added (200 μg/ml, 20 μg/ml, 1 μg/ml and 0.1 μg/ml) for 24 hours. The assay was performed in 96-well plates. Tumoral necrosis factor alpha (TNF-α) and interleukine-8 (IL-8) levels were quantified by ELISA (fluorimetry, BD OpEIA, USA). One control was an assay with only the inflammatory agents at the same concentration to induce inflammation. Another control was were dexamethasone (10 μM)+Il-17/LPS.

[4] = system: interleukine-8 (IL-8) in THP-1; assay: IL-8 levels (ELISA) in THP-1 monocytes inflamed with IL-17 and LPS; assay type: cell-based, human; settings: IL-17 3 ng/ml + LPS 10 μg/ml 6 hours, then 24 hours; lysate 200, 20, 1 and 0.1 μg/ml (all doses); dexamethasone 10 μM
Procedure: as §4

[5] = system: Pseudomonas aeruginosa CECT 116; assay: cfu in P. aeruginosa culture (bacteriostatic/bactericide effect); assay type: cell-based; settings: methyl jasmonate alone
Procedure: (§5) In this example several concentrations of ABA ((+)-(S)-cis,trans-abscisic acid (synonym of (S)-5-(1-hydroxy-2,6,6-trimethyl-4-oxo-2-cyclohexen-1-yl)-3-methyl-(2Z,4E)-pentadienoic acid)) (60 μg/ml, 30 μg/ml, 15 μg/ml, 5 μg/ml) were tested in a culture of P. acnes. Different amounts of the Morinda citrifolia cell lysate disclosed in Example 6 below were also tested in the same conditions (60%, 30%, 10%, 1%, 0.5%) by weight of cell lysate in the P. acnes culture. […] The same protocol was followed with a culture of S. aureus and with a culture of M. furfur. Data are shown in next Tables 1.1 to 1.6, where bacteriostatic and bactericide concentrations are listed. Underlined concentrations are the considered bacteriostatic or fungistatic amounts and that they avoid biofilm formation.
S. aureus, P. aeruginosa, P. acnes, and M. furfur subcultures were carried out from the stock by streaking onto determined medium and incubated according to the conditions specified for each of the microorganisms according to standard procedures and as indicated below: […]
Inventors also tested the effect of methyl jasmonate in P. acnes, S. aureus, M. furfur and P. aeruginosa. […] A bactericide effect was detected at 60% w/w.

[6] = system: Propionibacterium acnes DSM 1897; assay: cfu in P. acnes culture 24 hours after inoculum (bacteriostatic/bactericide effect); assay type: cell-based; settings: inoc. day 320000, control 1490000
Procedure: as §5
(§6) S. aureus, P. aeruginosa, P. acnes, and M. furfur subcultures were carried out from the stock by streaking onto determined medium and incubated according to the conditions specified for each of the microorganisms according to standard procedures and as indicated below:
(§7) Further it was tested a composition comprising 30% of Morinda citrifolia cell lysate and 30×10^−4% of abscisic acid ((+)-(S)-cis,trans-abscisic acid), glycerine and preservatives (q.s. 100%) in cultures of P. acnes, S. aureus, P. aeruginosa and M. furfur. The composition was used in the microbial culture at 5% and at 10% of the culture. […]

[7] = system: Staphylococcus aureus ATCC 6538; assay: cfu in S. aureus culture 24 hours after inoculum (bacteriostatic/bactericide effect); assay type: cell-based; settings: ABA 60 μg/ml, inoc. day 520000, control 3310000
Procedure: as §5, §6, §7

[8] = system: Malassezia furfur ATCC 14521; assay: cfu in M. furfur culture 24 hours after inoculum (fungistatic/fungicide effect); assay type: cell-based; settings: inoc. day 420000, control 1470000
Procedure: as §5, §6, §7

[9] = system: Candida albicans DSM 3454; assay: cfu in C. albicans culture (fungistatic/fungicide effect); assay type: cell-based; settings: ABA 60 μg/ml; inoc. day 264000, control 456500
Procedure: (§8) Following the same scheme and procedure as in Examples 1-3 above, ABA 8((+)-(S)-cis,trans-abscisic acid)) and combinations of ABA with cell culture lysates or methyl jasmonate were tested on several microorganisms forming biofilms. As before, underlined concentrations are the considered bacteriostatic or fungistatic amounts and that they avoid biofilm formation.
(§9) Biofilm generation conditions and medium for the growth of the bacteria were those recommended by the supplier of each microorganism.

[10] = system: Streptococcus mutans DSM 20523; assay: cfu in S. mutans culture (bacteriostatic/bactericide effect); assay type: cell-based; settings: inoc. day 200000, control 109000 × 10
Procedure: as §8, §9

[11] = system: Epidermophytum floccosum DSM 10709; assay: cfu in E. floccosum culture (fungistatic effect); assay type: cell-based; settings: ABA 60 μg/ml; inoc. day 136000, control 587500
Procedure: as §8, §9

[12] = system: Candida albicans DSM 3454; assay: C. albicans biofilm on glass coupons (and planktonic growth in suspension); assay type: cell-based; settings: ABA 60 μg/ml; inoc. day 184000, control 460000
Procedure: (§10) Generation of representative biofilms on borosilicate glass coupons (12.7 mm diameter and a thickness of 3.7 mm) by immersion of the coupons in a suspension of each microorganism with culture medium and the compounds of interest was tested. Evaluation of the antibiofilm properties and study of adhesion, growth and viability of biofilms on the coupons was analyzed by fluorescence staining technique and visualization of live/dead microbial was done by Laser Scanning Confocal Microscopy. The sampling and analysis of coupons to determine biofilm population density was recorded as colony-forming units (cfu) per coupon. In parallel, planktonic cells quantification in suspension was also determined.
(§11) For the determination of biofilm populations the microbial population adhered to the coupon surface were quantified by dilution and plating after biofilm disaggregation process by sonication and vortex cycles. The planktonic cells (suspension) were determined by dilution and plating. The controls were, respectively the cells on coupons or in suspension after 5 days without any treatment.
(§12) Following procedure as disclosed in Example 3, particular compositions comprising ABA ((+)-(S)-cis,trans-abscisic acid) and cell lysate of a plant cell culture of Morinda citrifolia were also tested in an assay on glass coupons that also served as example of biofilm formation on abiotic surfaces. […]

[13] = system: Epidermophytum floccosum DSM 10709; assay: E. floccosum biofilm on glass coupons (and planktonic growth in suspension); assay type: cell-based; settings: ABA 60 μg/ml; inoc. day 96667, control 374333
Procedure: as §10, §11, §12

Molecule	CXCL10 mRNA, % of inhibition vs Media (normalized) [1]	DEF-4 mRNA, % of inhibition vs Media (normalized) [1]	ICAM-1 mRNA, % of inhibition vs Media (normalized) [1]	IFNg mRNA, % of inhibition vs Media (normalized) [1]	IL-8 mRNA, % of inhibition vs Media (normalized) [1]	IL-17A mRNA, % of inhibition vs Media (normalized) [1]	IL-20 mRNA, % of inhibition vs Media (normalized) [1]	K-16 mRNA, % of inhibition vs Media (normalized) [1]	LNC2 mRNA, % of inhibition vs Media (normalized) [1]	CCL13 mRNA, % of inhibition vs Media (normalized) [2]	CCL17 mRNA, % of inhibition vs Media (normalized) [2]	CCL18 mRNA, % of inhibition vs Media (normalized) [2]	CCL26 mRNA, % of inhibition vs Media (normalized) [2]	FLG mRNA, % of inhibition vs Media (normalized) [2]	IFNg mRNA, % of inhibition vs Media (normalized) [2]	IL-13 mRNA, % of inhibition vs Media (normalized) [2]	K16 mRNA, % of inhibition vs Media (normalized) [2]	LOR mRNA, % of inhibition vs Media (normalized) [2]	other results
C[C@@H]1C[C@H]2[C@@H]3CCC4=CC(=O)C=C[C@]4(C)[C@@]3(F)[C@@H](O)C[C@]2(C)[C@@]1(O)C(=O)CO [dexamethasone, reference compound]	8.7%	−15.7%	17.1%	72.7%	−70.1%	116.9%	5.5%	27.8%	96.3%	28.4%	−81.4%	−9.1%	−34.0%	270.4%	−100.0%	−100.0%	−39.8%	189.2%	TNF-α levels in relation to inflamed cells [3]: −56%; IL-8 levels in relation to inflamed cells [4]: −33%
CC/C=C\CC1C(=O)CCC1CC(=O)OC (centres unmarked) [methyl jasmonate]	–	–	–	–	–	–	–	–	–	–	–	–	–	–	–	–	–	–	percentage by weight in the culture media with bactericide effect [5]: 60 % w/w
(+)-(S)-cis,trans-abscisic acid [ABA]	140.1%	−64.8%	−40.6%	−10.7%	−71.5%	9.3%	−27.8%	24.9%	−45.7%	−59.2%	−70.1%	−72.9%	−44.2%	8.3%	9.2%	−79.0%	−69.1%	−45.5%	CFU ([6]; ABA 30 μg/ml): 158001 CFU; CFU ([6]; ABA 60(*) μg/ml, (*)concentration considered bactericide): 100000 CFU; CFU [7]: 585000 CFU; CFU ([8]; ABA 30 μg/ml): 529000 CFU; CFU ([8]; ABA 60(*) μg/ml, (*)considered fungicide): 256000 CFU; CFU [9]: 367500 CFU; CFU ([10]; ABA 50 μg/ml): 289500 CFU; CFU ([10]; ABA 60 μg/ml): 268000 CFU; CFU [11]: 287200 CFU; CFU on coupons [12]: 360000 CFU; CFU on coupons [13]: 243667 CFU

Source: patent US20210161842A1, “ABSCISIC ACID FOR THE TREATMENT OF SKIN DISEASES” (priority 2018, published 2021)
